In ChEMBL document CHEMBL1124274, “Synthesis, pharmacological action, and receptor binding affinity of the enantiomeric 1-(1-phenyl-3-methylcyclohexyl)piperidines” (J Med Chem, 1988):

How the values were obtained:
[1] = molecular target: T1, Glutamate receptor ionotropic, NMDA 2C (Rattus norvegicus, UniProt Q00961); assay: Binding affinity against phencyclidine receptor was determined by the displacement of [3H]TCP of whole rat brain minus cerebellum.; format: tissue-based
[2] = molecular target: T1, Glutamate receptor ionotropic, NMDA 2C; assay: Inhibition activity against binding of phencyclidine receptor was determined by the displacement of [3H]-TCP of whole rat brain minus cerebellum.; format: tissue-based

T1 sequence (Q00961 whole entry): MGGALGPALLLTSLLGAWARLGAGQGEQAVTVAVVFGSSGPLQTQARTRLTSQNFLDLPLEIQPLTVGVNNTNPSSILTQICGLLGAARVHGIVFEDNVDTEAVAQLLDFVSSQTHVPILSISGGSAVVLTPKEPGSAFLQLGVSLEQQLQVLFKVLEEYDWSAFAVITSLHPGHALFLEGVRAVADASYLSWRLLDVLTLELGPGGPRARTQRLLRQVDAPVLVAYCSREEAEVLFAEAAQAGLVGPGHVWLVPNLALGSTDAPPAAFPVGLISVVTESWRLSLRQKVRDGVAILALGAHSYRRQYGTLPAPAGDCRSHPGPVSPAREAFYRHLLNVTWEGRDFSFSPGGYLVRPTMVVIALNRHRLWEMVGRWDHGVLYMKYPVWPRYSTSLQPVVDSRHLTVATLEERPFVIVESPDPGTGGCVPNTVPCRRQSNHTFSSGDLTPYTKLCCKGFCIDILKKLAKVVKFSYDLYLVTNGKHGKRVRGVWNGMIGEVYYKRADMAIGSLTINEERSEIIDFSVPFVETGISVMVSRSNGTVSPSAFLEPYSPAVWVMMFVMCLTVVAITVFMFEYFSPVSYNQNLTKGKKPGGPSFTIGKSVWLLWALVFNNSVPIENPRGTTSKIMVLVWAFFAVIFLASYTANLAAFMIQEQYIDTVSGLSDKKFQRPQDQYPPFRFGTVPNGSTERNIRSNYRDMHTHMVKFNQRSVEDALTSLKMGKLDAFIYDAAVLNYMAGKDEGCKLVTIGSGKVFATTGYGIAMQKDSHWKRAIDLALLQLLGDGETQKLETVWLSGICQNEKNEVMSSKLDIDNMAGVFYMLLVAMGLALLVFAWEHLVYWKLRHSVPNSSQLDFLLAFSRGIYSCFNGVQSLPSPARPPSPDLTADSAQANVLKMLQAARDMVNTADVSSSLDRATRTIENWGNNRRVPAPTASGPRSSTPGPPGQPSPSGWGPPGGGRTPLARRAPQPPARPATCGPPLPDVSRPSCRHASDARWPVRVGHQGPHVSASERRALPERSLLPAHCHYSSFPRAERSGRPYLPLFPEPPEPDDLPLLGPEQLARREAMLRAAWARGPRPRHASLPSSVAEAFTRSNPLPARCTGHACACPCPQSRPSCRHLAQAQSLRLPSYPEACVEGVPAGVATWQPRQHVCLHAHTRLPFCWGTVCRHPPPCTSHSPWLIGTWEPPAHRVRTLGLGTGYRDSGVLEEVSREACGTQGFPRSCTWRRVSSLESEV

Row | SMILES | Ki [1] [nM] | IC50 [2] [nM]
1 | C[C@H]1CCC[C@](c2ccccc2)(N2CCCCC2)C1 | 170 | –
2 | CC1CCCN(C2(c3ccccc3)CCCCC2)C1 (stereo in doubt; (+)) | 60 | –
3 | C[C@@H]1CCC[C@](c2ccccc2)(N2CCCCC2)C1 | 820 | –
4 | c1ccc(C2(N3CCCCC3)CCCCC2)cc1 [PHENCYCLIDINE] | 60 | 600
5 | C[C@H]1CCC[C@@](c2ccccc2)(N2CCCCC2)C1 | 3300 | –
6 | C[C@@H]1CCC[C@@](c2ccccc2)(N2CCCCC2)C1 | 6800 | –
7 | CC1CCCN(C2(c3ccccc3)CCCCC2)C1 (stereo in doubt; (-)) | 2150 | –
